Measured values from paper PMC5418449, “Characterisation of CCT271850, a selective, oral and potent MPS1 inhibitor, used to directly measure in vivo MPS1 inhibition vs therapeutic efficacy” (British Journal of Cancer, 2017).

Key:
Design in all cases: MTT antiproliferation assay, absorbance at 570 nm, human cancer cell line panel
Conditions in all cases: 3-day MTT; inhibitor; read-out: Table S1. IC50 of CCT271850 determined by MTT and clonogenic assays (CA). / All cell lines were tested at least 2 times. / 3-day MTT
A2780 = system: A2780
Experimental: (§1) Cell lines were obtained from the American Type Culture Collection and grown in their recommended culture medium, supplemented with 10% FBS at 37 °C in 5% CO2. In-house authentication of cell lines by SNP profiling was carried out and cultured cells were passaged for less than 6 months before replacement from early-passage frozen stocks. Cells were regularly screened for Mycoplasma, using a PCR-based assay (VenorGem; Minerva Biolabs, Berlin, Germany). Transfections were carried out at ∼80% confluency with the plasmids indicated, using Lipofectamine LTX (15338030, Life Technologies, Carlsbad, CA, USA) according to the manufacturer's instructions. Cell proliferation assays were carried out by colorimetric MTT method (Sigma, St Louis, MO, USA) as described elsewhere ([Mosmann, 1983]). Briefly, cells were plated in 96-well plates at 2000–5000 cells per well (depending on the cell line) followed by treatment with two-fold dilutions of 0–25 μM drug for 72 h. Absorbance was measured at 570 nm with the Wallac VICTOR2 1420 Multilabel Counter (PerkinElmer, Waltham, MA, USA). To evaluate CCT271850 antiproliferation effects in a large panel of human cancer cell lines, 91 cell lines were treated for 72 h and 14 days at different compound concentrations in growth inhibition assays. The growth inhibition values as measured by IC50 are summarised in Table 2 and Supplementary Table S1. […] Cell lines from colon and head and neck cancers were among the most sensitive.

Kuramochi = system: Kuramochi
Experimental: as §1

Miapaca-2 = system: Miapaca-2
Experimental: as §1

OAW42 = system: OAW42
Experimental: as §1

SMOV2 = system: SMOV2
Experimental: as §1

SKOV3 = system: SKOV3
Experimental: as §1

CaoV3 = system: CaoV3
Experimental: as §1

TOV21G = system: TOV21G
Experimental: as §1

Capan-1 = system: Capan-1
Experimental: as §1

KGN = system: KGN
Experimental: as §1

EF021 = system: EF021
Experimental: as §1

HN6 = system: HN6
Experimental: as §1

OVCAR5 = system: OVCAR5
Experimental: as §1

Capan-2 = system: Capan-2
Experimental: as §1

AspC-1 = system: AspC-1
Experimental: as §1

PT45 = system: PT45
Experimental: as §1

SW626 = system: SW626
Experimental: as §1

OVCAR8 = system: OVCAR8
Experimental: as §1

PATU-8902 = system: PATU-8902
Experimental: as §1

Det562 = system: Det562
Experimental: as §1

BxPC-3 = system: BxPC-3
Experimental: as §1

OAW28 = system: OAW28
Experimental: as §1

005B = system: 005B
Experimental: as §1

Hs766T = system: Hs766T
Experimental: as §1

011A = system: 011A
Experimental: as §1

IC50 (A2780): 137 nM
IC50 (Miapaca-2): 245 nM
IC50 (SKOV3): > 100000 nM
IC50 (OVCAR5): 730 nM
IC50 (AspC-1): 2400 nM
IC50 (SW626): 4210 nM
IC50 (OVCAR8): 1230 nM
IC50 (BxPC-3): 525 nM
SMILES: COc1cc(-c2cnn(C)c2)ccc1Nc1ncc2ccnc(N[C@@H](C)C(C)(C)C)c2n1 [34h, CCT271850]
IC50 (Kuramochi): 4860 nM
IC50 (OAW42): 880 nM
IC50 (SMOV2): 795 nM
IC50 (CaoV3): 360 nM
IC50 (TOV21G): 753 nM
IC50 (Capan-1): 2050 nM
IC50 (KGN): 3120 nM
IC50 (EF021): 751 nM
IC50 (HN6): 330 nM
IC50 (Capan-2): 1550 nM
IC50 (PT45): 960 nM
IC50 (PATU-8902): 510 nM
IC50 (Det562): 1310 nM
IC50 (OAW28): 1020 nM
IC50 (005B): 440 nM
IC50 (Hs766T): 1900 nM
IC50 (011A): 1620 nM
